Literature values in article PMC5766568, “Effective photo-enhancement of cellular activity of fluorophore-octaarginine antisense PNA conjugates correlates with singlet oxygen formation, endosomal escape and chromophore lipophilicity” (Scientific Reports, 2018).
Like-named read-outs stand apart in the source and are kept apart here.

From the text: This could be due to a low quantum yield for singlet oxygen formation, which unfortunately is not available.

Row | log P (octanol/water) | SMILES | log P (octanol/water) (fluorophore alone)
1 | −1.44 | N=c1ccc2c(-c3ccc(C(=O)O)cc3C(=O)O)c3ccc(N)c(S(=O)(=O)O)c3oc-2c1S(=O)(=O)O [AF488, Alexa Fluor 488] | 
2 |  | CN(C)c1ccc2c(-c3ccccc3C(=O)[O-])c3ccc(N(C)C)cc3[o+]c2c1 [TMR fluorophore, Tetramethylrhodamine] | 2.92
